Literature values, collected in patent US12090029B2, “Devices and methods for enhancing immunogenicity to intradermal vaccination” (VERSITECH LIMITED, priority 2016, dated 2024).

Key:
influenza vaccination = conditions: elderly subjects
[1] = tested on: vaccine influenza strains; conditions: young healthy individuals, topical application before intradermal trivalent influenza vaccine (Hung et al., 2016)
influenza vaccine = conditions: mouse model, imiquimod cream applied (Zhang et al., 2014)

Q: Which “hospitalizations for influenza or pneumonia” value (influenza vaccination; relative to a vaccine-only group) does the source give for `CC(C)Cn1cnc2c(N)nc3ccccc3c21` [imiquimod] here?
A: fewer

Q: What about the seroconversion rate (influenza vaccination; sustained to 1 year, relative to a vaccine-only group) of the same compound?
A: earlier and better

Q: And the “immunogenicity of influenza vaccination” value (influenza vaccination; topical pre-treatment, relative to a vaccine-only group (Hung et al., 2014))?
A: significantly expedited, augmented, and prolonged

Q: And the “immunogenicity against the non-vaccine strains” value [1]?
A: increased

Q: What about the “immunogenicity against the vaccine influenza strains” value [1] of the same compound?
A: significantly improved

Q: And the “immunogenicity of influenza vaccine” value (influenza vaccine)?
A: enhanced
